The source of these data is ChEMBL document CHEMBL1134167, “Conformational study of a highly specific CXCR4 inhibitor, T140, disclosing the close proximity of its intrinsic pharmacophores associated with strong anti-HIV activity” (Bioorg Med Chem Lett, 2001).

Where a SMILES comes first, the peptide text is derived from it. Bridges are numbered along the chain shown (N, C = ends). [ ]: non-standard residue; d: D form. Gly(2-naphthyl) = N[C@H](C(=O)O)c1ccc2ccccc2c1; Cit = NC(=O)NCCC[C@H](N)C(=O)O

The test relates to Human immunodeficiency virus 1. Nature of the test: Effective concentration for HIV-1 inhibition. Format: functional, organism-based.

A word on the EC50: it is the concentration at which the effect is half-maximal. High values mean weaker potency, low ones greater potency.

Regarding `NCCCC[C@@H]1NC(=O)[C@H](CCCN=C(N)N)NC(=O)[C@H](Cc2ccc(O)cc2)NC(=O)[C@@H](NC(=O)[C@@H](NC(=O)[C@H](CCCN=C(N)N)NC(=O)[C@@H](N)CCCN=C(N)N)c2ccc3ccccc3c2)CSSC[C@@H](C(=O)N[C@@H](CCCN=C(N)N)C(=O)O)NC(=O)[C@H](CCCNC(N)=O)NC(=O)[C@H](CCCN=C(N)N)NC(=O)[C@H](Cc2ccc(O)cc2)NC(=O)[C@@H]2CCCN2C(=O)[C@@H](CCCCN)NC1=O` (H-RR[Gly(2-naphthyl)]CYRK[dK]PYR[Cit]CR-OH; disulfide 4-13), a half-maximal response (EC50) required 3.5 nM.
